Reference: patent publication US9481712B2, “Peptidomimetics possessing photo-controlled biological activity” (priority 2013, dated 2016)
Converted amounts (≈) assume the structure as drawn. *1 amine or outer side, *2 acyl side, *3 side chain or, on linkers, in order; H or OH if unused. Where a SMILES comes first, the peptide text is derived from it. Bridges are numbered along the chain shown (N, C = ends). [ ]: non-standard residue; d: D form. X2 = CC12SC(C(=O)NN[*:2])=CC1=C1CCCC1=C1C=C(C(=O)[*:1])SC12C; X1 = Cc1sc(C(=O)NN[*:2])cc1C1=C(c2cc(C(=O)[*:1])sc2C)CCC1; Orn = NCCC[C@H](N)C(=O)O

Legend:
[1] = test system: Escherichia coli DSM 1103; assay type: cell-based
Procedure: (§1) The antimicrobial activities of GS and its analogues were measured using broth microdilution assay using a standard protocol [Daniel Amsterdam (1996). Susceptibility testing of antimicrobials in liquid media. In: Antibiotics in laboratory medicine, Loman, V., ed., 4th ed. Williams and Wilkins, Baltimore, Md., pp. 52-111]. The peptidomimetic compounds were tested against bacteria strains Escherichia coli DSM 1103, Staphylococcus aureus DSM 1104, Staphylococcus epidermidis DSM 1708, and Staphylococcus xylosus DSM 20267. GS analogues in the “closed” form were prepared in advance by RP-HPLC and stored protecting them from light. The corresponding minimal inhibitory concentrations (MIC) are listed in Table 2, where a small MIC value indicates a high antimicrobial activity, and vice versa.

[2] = test system: Staphylococcus aureus DSM 1104; assay type: cell-based
Procedure: as §1

[3] = test system: Staphylococcus epidermidis DSM 1708; assay type: cell-based
Procedure: as §1

[4] = test system: Staphylococcus xylosus DSM 20267; assay type: cell-based
Procedure: as §1

erythrocytes = assay type: cell-based, human; settings: pH 7.6
Procedure: To test the hemolytic activities of GS and its analogues, conserved human blood samples were obtained from Karlsruhe municipal hospital and washed four times in Tris buffer, pH 7.6, at 4° C. Aliquots of the blood cells were incubated with different concentrations of the peptide/peptidomimetics for 30 min at 37° C. and subsequently centrifuged. The absorption of the supernatant at 540 nm gives the extent of hemolysis, relative to 0% as taken from the peptide-free control and 100% after treatment with Triton X-100 (not to interfere with this analysis, the samples with GS analogues in the “closed” form were back-converted to their “open” forms by 30 min exposure to the visible light). The HC50 values, where 50% of the erythrocytes were lysed, were determined from the concentration dependent curves and are listed in Table 3. Small HC50 values indicate a high hemolytic activity, and vice versa. […] This proves by several independent assays that the biological activities of the photo-switchable GS analogues could be controlled by light.

[5] = photo-conversion from "closed" to "open" form by visible light (RP-HPLC); assay type: physicochemical
Procedure: The reverse photo-conversion of the peptidomimetic GS-Sw(FP) from the “closed” to the “open” form by visible light was also tested. A solution of peptide in the pink-colored “closed”-form (in a water-acetonitrile mixture, 3:1, 100 μg/ml) was used. The conversion of the peptidomimetic from the “closed”-form to the “open”-form was determined by RP-HPLC (analytical C18 column, linear A:B gradient of 4% B/min, 1.5 ml/min flow rate) after 0.25, 1.5, 5.5, 7.5 min of irradiation by visible light. A bright halogen lamp (250 Watts) was used, and the solutions were placed in 10 cm distance from the light source. The obtained data fitted well to the exponential equation y=[…], where y is a conversion of “closed” form into the “open” form, t is the time of the illumination and r is the half-conversion time. […] The conversion from “closed” to “open” could be achieved to 100%.

Staphylococcus xylosus = assay: photo-activation on bacterial lawn (FIG. 5); assay type: cell-based; settings: 6 or 8 μg/ml "closed" form converted 60% or 80% by visible light; 37° C. for 18 hours
Text: The compound was applied to the bacterial lawn at different concentrations and then irradiated by visible light. Some geometrical shapes were cut out from a paper covering the entire Petri dish, such that the photo-switchable compound was converted into the “open” form only in those small areas exposed to the light. […] One further experiment aimed at finding these optimal conditions for treatment with the peptidomimetic GS-SwFP is illustrated in FIG. 5.

[6] = 250 W halogen lamp, 10 cm, water-acetonitrile 3:1, 100 μg/ml, from exponential fit

Compound | minimal inhibitory concentration (MIC) [1] | minimal inhibitory concentration (MIC) [2] | minimal inhibitory concentration (MIC) [3] | minimal inhibitory concentration (MIC) [4] | H50 (50% of hemolysis) (erythrocytes) | achievable conversion from "closed" to "open" [5] | time of illumination to achieve 60% transformation "closed" to "open" [5, 6] | time of illumination to achieve 80% conversion "closed" to "open" [5, 6] | antimicrobial effect on bacterial lawn after activation to "open" form (Staphylococcus xylosus)
CC(C)C[C@@H]1NC(=O)[C@H](CCCN)NC(=O)[C@H](C(C)C)NC(=O)[C@@H]2CCCN2C(=O)[C@@H](Cc2ccccc2)NC(=O)[C@H](CC(C)C)NC(=O)[C@H](CCCN)NC(=O)[C@H](C(C)C)NC(=O)[C@@H]2CCCN2C(=O)[C@@H](Cc2ccccc2)NC1=O [GS, [PVOL^DFPVOL^DF]cyclo, reference compound] (cyclo(L[dF]PV[Orn]L[dF]PV[Orn])) | 8 µg/mL (≈ 7.01 µM) | 2 µg/mL (≈ 1.75 µM) | 2 µg/mL (≈ 1.75 µM) | 1 µg/mL (≈ 0.876 µM) | 12 µg/mL |  |  |  | 
Cc1sc2cc1C1=C(CCC1)c1cc(sc1C)C(=O)N[C@@H](C(C)C)C(=O)N[C@@H](CCCN)C(=O)N[C@@H](CC(C)C)C(=O)N[C@H](Cc1ccccc1)C(=O)N1CCC[C@H]1C(=O)N[C@@H](C(C)C)C(=O)N[C@@H](CCCN)C(=O)N[C@@H](CC(C)C)C(=O)NNC2=O [GS-Sw(FP), cyclo(^DFPVOL-1b-VOL)] |  |  |  |  |  | 100% | 7.5 min | 12.5 min | pronounced antimicrobial activity
CC(C)C[C@@H]1NC(=O)[C@H](CCCN)NC(=O)[C@H](C(C)C)NC(=O)[C@@H]2CCCN2C(=O)[C@@H](Cc2ccccc2)NC(=O)[C@H](CC(C)C)NC(=O)[C@H](CCCN)NC(=O)[C@H](C(C)C)NC(=O)C2=CC3=C4CCCC4=C4C=C(SC4(C)C3(C)S2)C(=O)NNC1=O (stereo partly drawn) [GS-Sw(FP), “closed”, cyclo(^DFPVOL-1b-VOL)] | >128 µg/mL | 32 µg/mL (≈ 25.8 µM) | 64 µg/mL (≈ 51.5 µM) | 32 µg/mL (≈ 25.8 µM) | 72 µg/mL |  |  |  | 
Cc1sc2cc1C1=C(CCC1)c1cc(sc1C)C(=O)N[C@@H](C(C)C)C(=O)N[C@@H](CCCN)C(=O)N[C@@H](CC(C)C)C(=O)N[C@H](Cc1ccccc1)C(=O)N1CCC[C@H]1C(=O)N[C@@H](C(C)C)C(=O)N[C@@H](CCCN)C(=O)N[C@@H](CC(C)C)C(=O)NNC2=O [GS-Sw(FP), “open”, cyclo(^DFPVOL-1b-VOL)] | 128 µg/mL (≈ 103 µM) | 4 µg/mL (≈ 3.22 µM) | 8 µg/mL (≈ 6.44 µM) | 8 µg/mL (≈ 6.44 µM) | 6.5 µg/mL |  |  |  | 
CC(C)C[C@@H]1NC(=O)[C@H](CCCN)NC(=O)[C@H](C(C)C)NC(=O)[C@@H]2CCCN2C(=O)C2=CC3=C4CCCC4=C4C=C(SC4(C)C3(C)S2)C(=O)NNC(=O)[C@H](CCCN)NC(=O)[C@H](C(C)C)NC(=O)[C@@H]2CCCN2C(=O)[C@@H](Cc2ccccc2)NC1=O (stereo partly drawn) [GS-Sw(LF), “closed”, cyclo(^DFPVO-1b-PVOL)] (PV[Orn]L[dF]PV[Orn]; linker N-C via X2) | 64 µg/mL (≈ 52.2 µM) | 128 µg/mL (≈ 104 µM) | 128 µg/mL (≈ 104 µM) | 128 µg/mL (≈ 104 µM) | >>128 μg/ml |  |  |  | 
Cc1sc2cc1C1=C(CCC1)c1cc(sc1C)C(=O)N1CCC[C@H]1C(=O)N[C@@H](C(C)C)C(=O)N[C@@H](CCCN)C(=O)N[C@@H](CC(C)C)C(=O)N[C@H](Cc1ccccc1)C(=O)N1CCC[C@H]1C(=O)N[C@@H](C(C)C)C(=O)N[C@@H](CCCN)C(=O)NNC2=O [GS-Sw(LF), “open”, cyclo(^DFPVO-1b-PVOL)] (PV[Orn]L[dF]PV[Orn]; linker N-C via X1) | >128 µg/mL | 8 µg/mL (≈ 6.53 µM) | 16 µg/mL (≈ 13.1 µM) | 8 µg/mL (≈ 6.53 µM) | 47 µg/mL |  |  |  | 
CC(C)C[C@@H]1NC(=O)[C@H](CCCN)NC(=O)[C@H](C(C)C)NC(=O)[C@@H]2CCCN2C(=O)[C@@H](Cc2ccccc2)NC(=O)[C@H](CC(C)C)NC(=O)[C@H](CCCN)NC(=O)C2=CC3=C4CCCC4=C4C=C(SC4(C)C3(C)S2)C(=O)NNC(=O)[C@@H](Cc2ccccc2)NC1=O (stereo partly drawn) [GS-Sw(PV), “closed”, cyclo(^DFPVOL^DF-1b-OL)] ([Orn]L[dF]PV[Orn]L[dF]; linker N-C via X2) | >128 µg/mL | 16 µg/mL (≈ 12.4 µM) | 32 µg/mL (≈ 24.8 µM) | 32 µg/mL (≈ 24.8 µM) | 58 µg/mL |  |  |  | 
Cc1sc2cc1C1=C(CCC1)c1cc(sc1C)C(=O)N[C@@H](CCCN)C(=O)N[C@@H](CC(C)C)C(=O)N[C@H](Cc1ccccc1)C(=O)N1CCC[C@H]1C(=O)N[C@@H](C(C)C)C(=O)N[C@@H](CCCN)C(=O)N[C@@H](CC(C)C)C(=O)N[C@H](Cc1ccccc1)C(=O)NNC2=O [GS-Sw(PV), “open”, cyclo(^DFPVOL^DF-1b-OL)] ([Orn]L[dF]PV[Orn]L[dF]; linker N-C via X1) | >128 µg/mL | 4 µg/mL (≈ 3.1 µM) | 4 µg/mL (≈ 3.1 µM) | 4 µg/mL (≈ 3.1 µM) | 6 µg/mL |  |  |  | 
